From patent publication US20080194640A1, “Optically Active Tetrahydronaphthalene Derivative” (priority 2005, published 2008)

Legend:
C5a receptor = molecular target: T1, C5a receptor (Homo sapiens, UniProt P21730); experiment: C5a receptor binding assay ([125I]-human C5a, human peripheral blood neutrophil); settings: [125I]-C5a 200 pM, 4° C. for 2 hr, read-out: IC50 value, inhibition of [125I]-human C5a binding
T1 construct: neutrophil fraction was separated from human peripheral intravenous blood; endogenous in cells; host or cells: human peripheral blood neutrophils (whole cells)
T1 sequence (P21730 1-350): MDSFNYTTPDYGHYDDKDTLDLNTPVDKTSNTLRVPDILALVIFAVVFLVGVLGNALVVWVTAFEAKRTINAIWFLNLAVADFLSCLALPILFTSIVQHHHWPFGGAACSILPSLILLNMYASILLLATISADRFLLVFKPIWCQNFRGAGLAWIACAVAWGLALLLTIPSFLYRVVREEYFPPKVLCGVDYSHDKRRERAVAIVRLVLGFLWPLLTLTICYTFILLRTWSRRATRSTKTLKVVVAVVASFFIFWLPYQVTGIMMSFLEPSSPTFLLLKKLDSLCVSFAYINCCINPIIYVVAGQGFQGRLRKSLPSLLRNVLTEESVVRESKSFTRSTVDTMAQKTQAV
Procedure: The C5a receptor binding inhibitory action of C5a and the test compound was evaluated by a receptor binding assay comprising of human peripheral blood neutrophil, which expresses the C5a receptor, and [^125I]-human C5a (Amersham Pharmacia Biotech) in a MultiScreen (MILLIPORE). First, neutrophil fraction was separated from human peripheral intravenous blood using lympholyte-poly (Cedarlane), and suspended in a Binding buffer [50 mM HEPES, 1 mM CaCl2, 5 mM MgCl2, 0.5% bovine albumin (BSA, SIGMA), 0.02% NaN3 (pH 7.2)]. The binding assay was started by the addition of 1×10^5 cells/50 μL neutrophil suspension, 25 μL of a test compound solution (obtained by dissolving the test compound in N,N-dimethylformamide to a final concentration of 10 mmol/L and diluting with binding buffer), and 25 μL of [^125I]-C5a solution (final concentration 200 pM), to each well of the MultiScreen. […] After drying the MultiScreen, the radioactivity on the filter was measured using a gamma counter.
The rate of inhibition (% inhibition) of C5a binding by the test compound was calculated by the following formula using the count value obtained without addition of the test compound as Total, the count value obtained with addition of non-labeled C5a as Non, and the count value obtained with addition of the test compound as Test. […]

[1] = Evaluation of biological availability (bioavailability) in rat; assay type: in vivo; settings: for AUC: rat, fasted female SD rats, plasma
Procedure: Free base•Form-I crystal was administered to female SD rats fasted from the day before the experiment and the plasma concentration was measured under the following conditions. As a result, the areas under blood concentration-time curve (AUC) of the drug after intravenous administration and oral administration are as shown in Table 1.
• Dosing formulation: 0.5 mg/ml in aqueous physiological saline. • Dose: 1 mg/2 ml/kg • Administration method: bolus administration from the tail vein Collection of blood samples: About 0.1-0.2 mL of blood was taken from the cervical vein at 3 min, 10 min, 30 min, 1 hr, 2 hr, 4 hr and 6 hr after administration. The blood was centrifuged, and the plasma was separated.
• Dosing formulation: 2 mg/ml suspension adjusted by gradually adding aqueous hydroxypropylmethylcellulose solution to the compound of the present invention thoroughly triturated in an agate mortar. • Dose: 10 mg/5 ml/kg • Administration method: Forcible administration into the stomach • Collection of blood samples: About 0.1-0.2 mL of blood was taken from the cervical vein at 30 min, 1 hr, 2 hr, 4 hr, 6 hr, 8 hr and 24 hr after administration. The blood was centrifuged, and the plasma was separated.
The plasma concentration of the administered compound was measured by LC-MS/MS.
LC conditions • Column: Capcellpak C18 UG-120 (2.0φ mm×50 mm, S-5 μm, Shiseido Co., Ltd.) • Mobile phase: acetonitrile • Flow rate: 0.25 mL/min • Column temperature: room temperature • Auto sampler temperature set to: 25° C. • Gradient setting: • 0 min→0.6 min:25%→25% • 0.6 min→3.6 min:25%→75% • 3.6 min→6 min:75%→75% • 6 min→6.1 min:75%→25% • 6.1 min→9.5 min:25%→25% • MS/MS conditions • Ionization method: ESI • Capillary temperature: 350° C. • Sheath gas pressure: 80 psi • Spray voltage: 4.5 kV.
The plasma concentration of the racemate was measured by a similar method, and the biological availability was calculated and found to be 20%.

[2] = test system: C5a stimulated neutrophil; experiment: Production of reactive oxygen species in C5a-stimulated neutrophil; assay type: cell-based; settings: human neutrophil, C5a 3 nmol/L, luminol luminescence, 37° C.; read-out: IC50 value, inhibition of production of reactive oxygen species in C5a stimulated neutrophil
Procedure: A neutrophil fraction was separately taken from human peripheral venous blood using Lympholyte-poly (Cedarlane), and suspended in Hank's Balanced Salt Solution (HBSS, GIBCO BRL) containing 1% fetal bovine serum (FBS) and 1 mmol/L luminol (Wako Pure Chemical Industries, Ltd.). Reactive oxygen species was measured using a luminometer (MicroLumat, Berthold) for 96-well plate. […] Then, 25 μL of C5a (final concentration 3 nmol/L) was added and luminescence produced by the reaction of the luminol and the reactive oxygen species was measured with the lapse of time for 15 min. The rate of inhibition (% inhibition) of the production of reactive oxygen species in C5a stimulated neutrophil by the test compound was calculated by the following formula, wherein the peak value of the production of reactive oxygen species derived by C5a without addition of the test compound is Max, the peak value of the production of reactive oxygen species without addition of the test compound and without C5a stimulation is Min, and the peak value of the production of reactive oxygen species derived by C5a with the addition of the test compound is Test. […]

CCn1cc(CN(C(=O)C2CCCc3c(O)cccc32)c2ccc(C(C)C)nc2)cn1 (racemic) [racemate of the compound of Example 3, N-[(1-ethyl-1H-pyrazol-4-yl)methyl]-5-hydroxy-N-(6-isopropylpyridin-3-yl)-1,2,3,4-tetrahydronaphthalene-1-carboxamide, reference compound]
IC50 (C5a receptor): 23 nM
biological availability ([1]; female SD rats, oral 10 mg/kg vs intravenous 1 mg/kg): 20%
AUC ([1]; intravenous administration 1 mg/kg): 289 ng·h/mL
AUC ([1]; oral administration 10 mg/kg): 572 ng·h/mL
IC50 [2]: 5.9 nM
